From US6825230B2, “Spiro and dispiro 1,2,4-trixolane antimalarials” (Medicines for Malaria Venture MMV, priority 2002, dated 2004)
Converted amounts (≈) assume the structure as drawn. Like-named read-outs stand apart in the source and are kept apart here.

Columns and labels:
[1] = Pharmacokinetics in dogs (IV and oral dosing); settings: in vivo, dog; for bioavailability: some values marked (V), not defined
Excerpt: (§1) Artesunate is listed as a reference compound.

[2] = test system: ANKA strain of P. berghei; assay: Single dose STI in vivo screen in infected mice; set-up: species or system Plasmodium berghei; settings: for Survival (days) 10 mg/kg po: single 10 mg/kg po in 3% ethanol and 7% Tween 80; for Survival (days) 10 mg/kg po / Survival (days) 10 mg/kg SSV po / Survival (days) 10 mg/kg sc: untreated 6-7 days; for Activity (%) 10 mg/kg po: single 10 mg/kg po in 3% ethanol and 7% Tween 80 on day 1 post-infection; for Survival (days) 10 mg/kg SSV po: single 10 mg/kg po in SSV; for Activity (%) 10 mg/kg SSV po: single 10 mg/kg po in standard suspending vehicle (SSV) on day 1 post-infection; for Survival (days) 10 mg/kg sc: single 10 mg/kg sc in 3% ethanol and 7% Tween 80; for Activity (%) 10 mg/kg sc: single 10 mg/kg sc in 3% ethanol and 7% Tween 80 on day 1 post-infection
[3] = test system: chloroquine-sensitive NF54 strain of P. falciparum; assay: In vitro antimalarial semiautomated microdilution assay ([3H]-hypoxanthine incorporation), NF54 strain; type: cell-based, Plasmodium falciparum; settings: Plasmodium falciparum
Method in brief: (§2)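 Logit regression analysis yields the fifty percent inhibitory concentration. Compounds are tested by semiautomated microdilution on intraerythrocytic parasites drawn from asynchronous stock cultures, measuring [3H]-hypoxanthine incorporation.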

[4] = test system: P. berghei ANKA strain; assay: Prophylactic activity, single 100 mg/kg po at various times before infection; type: in vivo, Plasmodium berghei
Protocol: (§3) Moro NMRI male mice (Fu Albino specific pathogen free) weighing 18±2 g were infected intravenously (i.v.) with 2×10^7 P. berghei ANKA strain-infected erythrocytes from donor mice on day 0 of the experiment. From donor mice with circa 30% parasitemia, heparinized blood was taken and diluted in physiological saline to 10^8 parasitized erythrocytes per ml. An aliquot (0.2 ml) of this suspension was injected i.v. into experimental and control groups of mice. […] Throughout the experiments, mice were kept in groups of three or five animals in Makrolon type II cages in an air-conditioned animal room at 22 to 23° C.
Prophylactic activities of the compounds were compared after administering po single dose of 100 mg/kg to different groups of five animals at various times before infection. All groups including an untreated control group, were then infected at the same time. Parasitemia was determined for each animal on day 3 post-infection, and percent of reduction of the level of parasitemia compared to levels for animals given no drug is determined.

[5] = test system: Schistosoma mansoni adult worms (49-day-old); assay: Effect on adult schistosomes (49-day-old) in infected mice; type: in vivo; settings: single 400 mg/kg per os; for % reduction of adult worms growth at day 49 after per os application of 400 mg/kg, TWR (%): 49-day-old adults, total worm reduction rate; for Adult worms day 49, per os 400 mg/kg, DEAD WORM (%): percentage of dead worm in the liver
Protocol: Mice were infected with 100 Schistosoma mansoni cercariae on day 49 post-treatment. Each group was treated per os with OZ compounds at single doses of 200, 400, and 600 mg/kg. Untreated mice served as the control. All groups were killed 4 weeks after treatment and the liver and intestine were removed and separated. The liver and intestine were compressed and alive male and female worms could be seen and counted.

[6] = test system: chloroquine-resistant K1 strain of P. falciparum; assay: In vitro antimalarial semiautomated microdilution assay ([3H]-hypoxanthine incorporation), K1 strain; type: cell-based, Plasmodium falciparum; settings: Plasmodium falciparum
Method in brief: as §2

[7] = Pharmacokinetics in rats (IV and oral dosing); settings: rat, in vivo
Excerpt: as §1

[8] = test system: P. berghei ANKA strain; assay: Onset of action and recrudescence experiment, single 100 mg/kg po; type: in vivo, Plasmodium berghei; settings: single 100 mg/kg po (SSV) on day +3 post-infection; recrudescence = >5% parasitemia; followed up to 60 days; groups of five
Protocol: The onset of drug action was determined after a single fixed dose of 100 mg/kg (SSV vehicle) po to groups of five animals on day +3 post-infection (day 0).
as §3

[9] = test system: P. berghei ANKA strain; assay: Divided 3x10 mg/kg vs single 1x30 mg/kg po dose in infected mice; type: in vivo, Plasmodium berghei; settings: 10 mg/kg po on days 1, 2, 3 post-infection
Protocol: as §3
(§4) They were administered per os (p.o.) in a total volume of 0.01 ml per gram of mouse. The activity of the compound was determined by a variety of methods outlined in subsequent sections. Survival time was also recorded, and survival to day 30 post-infection was considered to be a cure.
The first experiment conducted consisted of administration of a divided 3×10 mg/kg p.o. dose administered on days 1, 2, and 3 post-infection vs. a single 1×30 mg/kg po dose administered on day 1 post-infection. On day 4 post-infection, blood smears of all animals were prepared and stained with Giemsa. […] Compounds were administered orally in the SSV vehicle.

[10] = test system: P. berghei ANKA strain; assay: Divided 3x3 mg/kg and 3x1 mg/kg po doses in infected mice; type: in vivo, Plasmodium berghei; settings: for Activity (%): percent reduction of parasitemia vs control on day 4
Protocol: as §3, §4
The second experiment consists of administration of divided 3×3 mg/kg and 3×1 mg/kg po doses administered on days 1, 2, and 3 post-infection. On day 4 post-infection, blood smears of all animals were prepared and stained with Giemsa. […] Compounds were administered orally in the SSV vehicle.

[11] = test system: ANKA strain of Plasmodium berghei; assay: Single dose ED50/ED90/ED99 determination in infected mice; type: in vivo; settings: single dose po in SSV on day 1 post-infection, parasitemia day 3, nonlinear fitting
Protocol: In the single dose ED50/ED98/ED99 determinations, Moro SPF or NMRI mice (group of three) infected with the ANKA strain of Plasmodium berghei were treated on day one post-infection. […] The SSV consists of 0.5% w/v CMC, 0.5% v/v benzyl alcohol, 0.4% v/v Tween 80, and 0.9% w/v sodium chloride in water. Antimalarial activity was measured by percent reduction in parasitemia on day three post-infection. The ED50/ED90 values were calculated by nonlinear fitting.
The ED50, ED90, and ED99 values were calculated by non-linear fitting with statistical program and were expressed in mg/kg.

[12] = percent reduction in parasitemia on day 3
[13] = 3 × 1 mg/kg p.o. SSV on days 1, 2, 3 post-infection
[14] = 3 × 3 mg/kg p.o. SSV on days 1, 2, 3 post-infection

NC(=O)CNC[C@H]1CC[C@]2(CC1)OOC1(O2)C2CC3CC(C2)CC1C3 (stereo partly drawn) [OZ256]
half-life ([1]; IV 10 mg/kg): 1.42 h
half-life ([1]; oral 10 mg/kg): 1.38 h
bioavailability ([1]; oral 10 mg/kg, read-out: Dog Oral Bioavailability 10 mg/kg): 42%
bioavailability ([1]; oral 25 mg/kg, read-out: Dog Oral Bioavailability 25 mg/kg): 38.3%
Survival (days) 10 mg/kg po [2]: 8.7 days
Activity (%) 10 mg/kg po [2, 12]: 99.70%
Survival (days) 10 mg/kg SSV po [2]: 8.7 days
Activity (%) 10 mg/kg SSV po [2, 12]: 99.67%
Survival (days) 10 mg/kg sc [2]: 9.7 days
Activity (%) 10 mg/kg sc [2, 12]: 99.95%
IC50 ([3]; chloroquine-sensitive NF54 strain, 72 h incubation, read-out: IC50 (ng/ml) NF54): 0.2 ng/mL (≈ 0.571 nM)
Prophylactic Activity (%) 72 h ([4]; po, 100 mg/kg): 13%
Prophylactic Activity (%) 24 h ([4]; single 100 mg/kg po 24 h before infection, parasitemia reduction on day 3 post-infection): 82%
Prophylactic Activity (%) 48 h ([4]; single 100 mg/kg po 48 h before infection, parasitemia reduction on day 3 post-infection): 29%
Prophylactic Activity (%) 0 h ([4]; single 100 mg/kg po at 0 h, parasitemia reduction on day 3 post-infection): 100%
% reduction of adult worms growth at day 49 after per os application of 400 mg/kg, TWR (%) [5]: 10%
Adult worms day 49, per os 400 mg/kg, DEAD WORM (%) [5]: 19%
IC50 ([6]; chloroquine-resistant K1 strain, 72 h incubation, read-out: IC50 (ng/ml) K1): 0.3 ng/mL (≈ 0.856 nM)
half-life ([7]; iv, 10 mg/kg): 1.57 h
bioavailability ([7]; po, 10 mg/kg): 18.6%
bioavailability ([7]; po, 25 mg/kg): 51.9%
half-life ([7]; po, 25 mg/kg): 1.22 h

CCO[C@H]1O[C@@H]2O[C@@]3(C)CC[C@H]4[C@H](C)CC[C@@H]([C@H]1C)[C@@]24OO3 [Arteether, arteether, reference compound]
Time of Recrudescence [8]: 11.4 days

c1cc(OC[C@H]2CC[C@]3(CC2)OO[C@]2(O3)C3CC4CC(C3)CC2C4)ccn1 [OZ301]
Survival (days) 3 mg/kg SSV po ([2]; single 3 mg/kg po in SSV): 8.4 days
Activity (%) 3 mg/kg SSV po ([2]; single 3 mg/kg po in SSV, percent reduction in parasitemia on day 3): 97%
Survival (days) 10 mg/kg SSV po [2]: 11.8 days
Activity (%) 10 mg/kg SSV po [2, 12]: 100%
Survival (days) 3 × 10 mg/kg p.o. SSV [9]: >30 days
Activity (%) 3 × 10 mg/kg p.o. SSV ([9]; parasitemia reduction on day 4): 100%
Cured infected mice at the 3×3 mg/kg dose ([10]; 3 mg/kg po (SSV) on days 1, 2, 3 post-infection): 1/5
Survival [10, 13]: 8.8 days
Activity (%) [10, 13]: 58%
Survival [10, 14]: 23 days
Activity (%) [10, 14]: 100%

c1ccc(C[C@H]2CC[C@]3(CC2)OOC2(O3)C3CC4CC(C3)CC2C4)cc1 (stereo partly drawn) [OZ156]
Time of Recrudescence [8]: > 60 days
Survival (days) 10 mg/kg po [2]: 17.0 days
Activity (%) 10 mg/kg po [2, 12]: 99.98%
Survival (days) 10 mg/kg SSV po [2]: 10.3 days
Activity (%) 10 mg/kg SSV po [2, 12]: 98.8%
Survival (days) 10 mg/kg sc [2]: 19.7 days
Activity (%) 10 mg/kg sc [2, 12]: 99.98%
IC50 ([3]; NF54, 72 h, read-out: IC50 (ng/ml) NF54, chloroquine-sensitive NF54 strain, 72 h incubation): 2.1 ng/mL (≈ 5.92 nM)
ED50 ([11]; Plasmodium berghei, po): 1.3 mg/kg
ED90 [11]: 2.6 mg/kg
ED99 [11]: 4.7 mg/kg
% reduction of adult worms growth at day 49 after per os application of 400 mg/kg, TWR (%) [5]: 0%
Adult worms day 49, per os 400 mg/kg, DEAD WORM (%) [5]: 6%
IC50 ([6]; K1, 72 h, read-out: IC50 (ng/ml) K1, chloroquine-resistant K1 strain, 72 h incubation): 2.1 ng/mL (≈ 5.92 nM)
